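Cultured in 96-well plates, cells were exposed to test compound for 48 hours across five concentrations. TGI denotes the concentration required for complete inhibition of growth.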
How the values were obtained:
Test in all cases: NCI anticancer screen, dose series, 48 h
[1] = test system: HS 578T breast
[2] = test system: LOX IMVI melanoma
[3] = test system: M14 melanoma
[4] = test system: SNB-75 CNS
[5] = test system: PC-3 prostate
[6] = test system: UACC-62 melanoma
[7] = test system: NCI-H23 lung
[8] = test system: TK-10 renal
[9] = test system: MDA-MB-231 breast
[10] = test system: HCT-116 colon
[11] = test system: CAKI-1 renal
[12] = test system: IGROV1 ovarian
[13] = test system: MDA-MB-435
[14] = test system: UO-31 renal
[15] = test system: OVCAR-8 ovarian
[16] = test system: ACHN renal
[17] = test system: BT-549 breast
[18] = test system: HL-60(TB) leukemia
[19] = test system: NCI/ADR-RES ovarian
[20] = test system: HOP-62 NSCLC
[21] = test system: MCF7 breast
[22] = test system: SN12C renal
[23] = test system: T-47D breast
[24] = test system: KM12 colon
[25] = test system: UACC-257 melanoma
[26] = test system: EKVX NSCLC
[27] = test system: SF-295 CNS
[28] = test system: 786-0 renal
[29] = test system: U251 CNS
[30] = test system: DU-145 prostate
[31] = test system: SK-MEL-2 melanoma
[32] = test system: A549 NSCLC
[33] = test system: NCI-H522 lung
[34] = test system: HCC-2998 colon
[35] = test system: MOLT-4 leukemia
[36] = test system: SK-MEL-5 melanoma
[37] = test system: SR leukemia
[38] = test system: SNB-19 CNS
[39] = test system: NCI-H226 lung
[40] = test system: OVCAR-5 ovarian
[41] = test system: SK-OV-3 ovarian
[42] = test system: A498 renal
[43] = test system: SK-MEL-28 melanoma
[44] = test system: HCT-15 colon
[45] = test system: K-562 leukemia
[46] = test system: NCI-H460 lung
[47] = test system: SF-268 CNS
[48] = test system: SF-539 CNS
[49] = test system: RPMI-8226 leukemia
[50] = test system: MALME-3M melanoma
[51] = test system: OVCAR-4 ovarian
[52] = test system: COLO 205 colon
[53] = test system: SW-620 colon
[54] = test system: MDA-N
[55] = test system: RXF 393 renal
[56] = test system: HT29 colon
[57] = test system: OVCAR-3 ovarian
[58] = test system: CCRF-CEM leukemia
[59] = test system: HOP-92 NSCLC

Structure (SMILES): Cc1cn(S(=O)(=O)c2ccccc2)c2c(OCc3ccccc3)cc(NS(C)(=O)=O)cc12
- TGI [1]: > 100 µM
- TGI [2]: > 100 µM
- TGI [3]: > 100 µM
- TGI [4]: > 100 µM
- TGI [5]: 29 µM
- TGI [6]: > 89.2 µM
- TGI [7]: > 100 µM
- TGI [8]: > 100 µM
- TGI [9]: 32.8 µM
- TGI [10]: > 100 µM
- TGI [11]: > 100 µM
- TGI [12]: > 100 µM
- TGI [13]: > 100 µM
- TGI [14]: > 100 µM
- TGI [15]: > 100 µM
- TGI [16]: > 100 µM
- TGI [17]: > 100 µM
- TGI [18]: > 20.6 µM
- TGI [19]: > 100 µM
- TGI [20]: > 100 µM
- TGI [21]: 27.3 µM
- TGI [22]: > 70.2 µM
- TGI [23]: 39.4 µM
- TGI [24]: > 100 µM
- TGI [25]: > 78 µM
- TGI [26]: > 44.6 µM
- TGI [27]: > 100 µM
- TGI [28]: > 100 µM
- TGI [29]: > 65.7 µM
- TGI [30]: > 100 µM
- TGI [31]: 63.5 µM
- TGI [32]: > 100 µM
- TGI [33]: > 75.9 µM
- TGI [34]: > 100 µM
- TGI [35]: > 24.8 µM
- TGI [36]: 16.6 µM
- TGI [37]: > 100 µM
- TGI [38]: > 100 µM
- TGI [39]: > 94.4 µM
- TGI [40]: > 100 µM
- TGI [41]: > 100 µM
- TGI [42]: 50.3 µM
- TGI [43]: > 100 µM
- TGI [44]: > 100 µM
- TGI [45]: > 100 µM
- TGI [46]: > 100 µM
- TGI [47]: > 77.9 µM
- TGI [48]: > 100 µM
- TGI [49]: > 63.7 µM
- TGI [50]: 43.7 µM
- TGI [51]: > 100 µM
- TGI [52]: 77.2 µM
- TGI [53]: > 100 µM
- TGI [54]: > 100 µM
- TGI [55]: > 100 µM
- TGI [56]: 17.2 µM
- TGI [57]: > 75.7 µM
- TGI [58]: > 100 µM
- TGI [59]: > 89.8 µM

Structure (SMILES): Oc1cc(Br)cc2cc(Cl)cnc12
- TGI [1]: 12.1 µM
- TGI [2]: > 26.5 µM
- TGI [3]: 10.4 µM
- TGI [4]: > 90.3 µM
- TGI [5]: > 100 µM
- TGI [6]: 6.1 µM
- TGI [7]: 48.2 µM
- TGI [8]: > 94.3 µM
- TGI [9]: > 100 µM
- TGI [10]: > 42 µM
- TGI [11]: 85.9 µM
- TGI [12]: 27.1 µM
- TGI [13]: > 67.7 µM
- TGI [14]: 17.4 µM
- TGI [15]: > 40.6 µM
- TGI [16]: > 68 µM
- TGI [17]: 47.6 µM
- TGI [18]: 2.75 µM
- TGI [19]: 10 µM
- TGI [20]: > 60.4 µM
- TGI [21]: 23.8 µM
- TGI [22]: 45.1 µM
- TGI [23]: 16.7 µM
- TGI [24]: > 42.7 µM
- TGI [25]: > 100 µM
- TGI [26]: 45.2 µM
- TGI [27]: > 48 µM
- TGI [28]: 38.8 µM
- TGI [29]: > 82.8 µM
- TGI [30]: > 55.5 µM
- TGI [31]: 95.9 µM
- TGI [32]: > 56.1 µM
- TGI [33]: 10.6 µM
- TGI [34]: 46.3 µM
- TGI [35]: 7.49 µM
- TGI [36]: 15.4 µM
- TGI [37]: > 30.2 µM
- TGI [38]: > 100 µM
- TGI [39]: 64.4 µM
- TGI [40]: > 100 µM
- TGI [41]: > 68.9 µM
- TGI [42]: 22.9 µM
- TGI [43]: > 100 µM
- TGI [44]: > 100 µM
- TGI [45]: 12.3 µM
- TGI [46]: 32.6 µM
- TGI [47]: > 39.9 µM
- TGI [48]: > 100 µM
- TGI [49]: 26 µM
- TGI [50]: 30 µM
- TGI [51]: 12.8 µM
- TGI [52]: > 54.9 µM
- TGI [53]: > 46.2 µM
- TGI [54]: > 100 µM
- TGI [55]: 15.2 µM
- TGI [56]: > 40.9 µM
- TGI [57]: 11.2 µM
- TGI [58]: 7.23 µM
- TGI [59]: > 100 µM
